Legend:
[1] = tested on: corneal neovascularization in New Zealand rabbits with alkali burn; test: Effects on corneal neovascularization in New Zealand rabbits with alkali burn; type: in vivo; settings: 1% eye drops 3 times a day; for Formation of new blood vessels in the cornea (slit-lamp photographs, FIG. 2), comparison of groups: preliminary conclusion from the figures; for Number of New Zealand rabbit eyes with appearance of fluorescein-stained spots / Number of New Zealand rabbit eyes with conjunctival congestion / Number of New Zealand rabbit eyes with corneal edema / Number of New Zealand rabbit eyes with neovascularization: 2 drops, 12 eyes per group (10 for SZY1905-P32)
Description: Twenty-four New Zealand rabbits were first given intravenous anesthesia with a chloralhydrate solution at a dose of about 0.5 mL/kg, followed by ocular surface anesthesia with 0.5% tetracaine hydrochloride eye drops. A piece of filter paper with a diameter of about 8 mm was immersed in 1 mol/L NaOH solution for 1 minute to reach saturation. The saturated filter paper was placed in the center of the cornea for 1 minute and then removed, immediately followed by repeatedly rinsing the cornea and the conjunctival sac with 0.9% sodium chloride injection for 1 minute. After that, tobramycin dexamethasone sodium phosphate eye drops were administered. After modeling, the twenty-four animals were divided into four groups, which were: Model group; SZY1905-P30 eye drops-administered group; […] The eye drops were administered 3 times a day, 2 drops each time. The Model group was not administered with any drugs. […] The cornea was then stained with fluorescein sodium, and observed under the slit-lamp microscope and photographed.

[2] = Testing of stability at different pH values (HPLC); type: physicochemical
Description: 10 mg of the sample was weighed and 10 mL of an aqueous solution at a different pH value was added, followed by ultrasonic dissolving and filtration. HPLC testing was then performed.

[3] = Testing of solubility at different pH values
Description: First, a series of solutions with pH-5-8 were prepared using phosphoric acid and NaOH.

[4] = 1st day of the modeling (0 day of administration)
[5] = 7th day of the modeling (6th day of administration)
[6] = 14th day of the modeling (13th day of administration)

SMILES	Formation of new blood vessels in the cornea (slit-lamp photographs, FIG. 2), comparison of groups [1]	Number of New Zealand rabbit eyes with appearance of fluorescein-stained spots [1, 4]	Number of New Zealand rabbit eyes with conjunctival congestion [1, 4]	Number of New Zealand rabbit eyes with corneal edema [1, 4]	Number of New Zealand rabbit eyes with neovascularization [1, 4]	Number of New Zealand rabbit eyes with appearance of fluorescein-stained spots [1, 5]	Number of New Zealand rabbit eyes with conjunctival congestion [1, 5]	Number of New Zealand rabbit eyes with corneal edema [1, 5]	Number of New Zealand rabbit eyes with neovascularization [1, 5]	Number of New Zealand rabbit eyes with appearance of fluorescein-stained spots [1, 6]	Number of New Zealand rabbit eyes with conjunctival congestion [1, 6]	Number of New Zealand rabbit eyes with corneal edema [1, 6]	Number of New Zealand rabbit eyes with neovascularization [1, 6]	Stability, 0 day (%) ([2]; Purified water, 10 mg in 10 mL)	Stability, 8th day (%) ([2]; Purified water, 10 mg in 10 mL)	Stability, 20th day (%) ([2]; Purified water, 10 mg in 10 mL)	Stability, 30th day (%) ([2]; Purified water, 10 mg in 10 mL)	Stability, 0 day (%) ([2]; pH = 5.0, 10 mg in 10 mL)	Stability, 8th day (%) ([2]; pH = 5.0, 10 mg in 10 mL)	Stability, 20th day (%) ([2]; pH = 5.0, 10 mg in 10 mL)	also measured
C[C@H]1[C@H](OCCCN)O[C@@H]2O[C@@]3(C)CC[C@H]4[C@H](C)CC[C@@H]1C24OO3 [SZY1905-P32, reference compound]	new vessels have spread to the entire cornea	10	1	8	0	9	0	4	6	8	0	3	7								
C[C@H]1[C@H](OCCCC[N+](C)(C)C)O[C@@H]2O[C@@]3(C)CC[C@H]4[C@H](C)CC[C@@H]1C24OO3.[I-] [SZY1905-P31, artemisinin quaternary ammonium butyl ether iodate]	can delay the rapid formation of new blood vessels significantly better than the SZY1905-P32 eye drops-administered group	12	2	9	0	7	0	3	3	6	0	3	3	98.05%	97.68%	97.35%	97.46%	98.11%	97.69%	97.38%	Stability, 30th day (%) ([2]; pH = 5.0, 10 mg in 10 mL): 97.48%; Stability, 0 day (%) ([2]; pH = 6.0, 10 mg in 10 mL): 98.16%; Stability, 8th day (%) ([2]; pH = 6.0, 10 mg in 10 mL): 97.64%; Stability, 20th day (%) ([2]; pH = 6.0, 10 mg in 10 mL): 97.39%; Stability, 30th day (%) ([2]; pH = 6.0, 10 mg in 10 mL): 97.48%; Stability, 0 day (%) ([2]; pH = 7.0, 10 mg in 10 mL): 98.26%; Stability, 8th day (%) ([2]; pH = 7.0, 10 mg in 10 mL): 97.85%; Stability, 20th day (%) ([2]; pH = 7.0, 10 mg in 10 mL): 97.57%; Stability, 30th day (%) ([2]; pH = 7.0, 10 mg in 10 mL): 97.58%; Stability, 0 day (%) ([2]; pH = 8.0, 10 mg in 10 mL): 98.14%; Stability, 8th day (%) ([2]; pH = 8.0, 10 mg in 10 mL): 97.64%; Stability, 20th day (%) ([2]; pH = 8.0, 10 mg in 10 mL): 97.33%; Stability, 30th day (%) ([2]; pH = 8.0, 10 mg in 10 mL): 97.49%; solubility ([3]; Purified water, 25° C. (room temperature)): >10000 µg/mL; solubility ([3]; pH 5.0, 25° C. (room temperature)): >1000 µg/mL; solubility ([3]; pH 6.0, 25° C. (room temperature)): >1000 µg/mL; solubility ([3]; pH 7.0, 25° C. (room temperature)): >1000 µg/mL; solubility ([3]; pH 8.0, 25° C. (room temperature)): >1000 µg/mL
C[C@H]1[C@H](OCCC[N+](C)(C)C)O[C@@H]2O[C@@]3(C)CC[C@H]4[C@H](C)CC[C@@H]1C24OO3 [SZY1905-P30, artemisinin quaternary ammonium propyl ether iodate]	can delay the rapid formation of new blood vessels significantly better than the SZY1905-P32 eye drops-administered group	12	2	8	0	6	0	2	3	5	0	1	4	97.09%	96.91%	97.04%	97.28%	97.23%	96.90%	97.01%	Stability, 30th day (%) ([2]; pH = 5.0, 10 mg in 10 mL): 97.25%; Stability, 0 day (%) ([2]; pH = 6.0, 10 mg in 10 mL): 97.24%; Stability, 8th day (%) ([2]; pH = 6.0, 10 mg in 10 mL): 96.95%; Stability, 20th day (%) ([2]; pH = 6.0, 10 mg in 10 mL): 96.81%; Stability, 30th day (%) ([2]; pH = 6.0, 10 mg in 10 mL): 97.23%; Stability, 0 day (%) ([2]; pH = 7.0, 10 mg in 10 mL): 97.34%; Stability, 8th day (%) ([2]; pH = 7.0, 10 mg in 10 mL): 97.09%; Stability, 20th day (%) ([2]; pH = 7.0, 10 mg in 10 mL): 96.97%; Stability, 30th day (%) ([2]; pH = 7.0, 10 mg in 10 mL): 97.26%; Stability, 0 day (%) ([2]; pH = 8.0, 10 mg in 10 mL): 97.22%; Stability, 8th day (%) ([2]; pH = 8.0, 10 mg in 10 mL): 97.13%; Stability, 20th day (%) ([2]; pH = 8.0, 10 mg in 10 mL): 96.98%; Stability, 30th day (%) ([2]; pH = 8.0, 10 mg in 10 mL): 97.13%; solubility ([3]; aqueous solution adjusted with phosphoric acid and NaOH, 25 °C, pH 5, aqueous buffer): > 1000 µg/mL; solubility ([3]; aqueous solution adjusted with phosphoric acid and NaOH, 25 °C, pH 6, aqueous buffer): > 1000 µg/mL; solubility ([3]; aqueous solution adjusted with phosphoric acid and NaOH, 25 °C, pH 7, aqueous buffer): > 1000 µg/mL; solubility ([3]; aqueous solution adjusted with phosphoric acid and NaOH, 25 °C, pH 8, aqueous buffer): > 1000 µg/mL; solubility ([3]; purified water, 25 °C, water): > 10000 µg/mL

From US20250353861A1, “DERIVATIVE OF ARTEMISININ AND PREPARATION METHOD AND USE THEREOF” (SHANGHAI INNOFORTUNE BIOTECH CO. LTD., priority 2022, published 2025)
